According to US4587256A, “Novel thiazolidine derivatives” (Hoffmann-La Roche Inc., priority 1983, dated 1986):

Legend:
[1] = target: T1, aldose reductase from calves lenses (Bos taurus, UniProt P16116); assay: inhibiting activity of aldose reductase from calves lenses; assay type: biochemical; settings: read-out: IC50 values (concentrations which bring about 50% enzyme inhibition)
T1 construct: aldose reductase from calves lenses; from tissue; host or cells: calf lens

galactosaemic rats = assay: dulcitol concentration in the eye lens of galactosaemic rats (30% galactose diet); assay type: in vivo; settings: compared to untreated galactosaemic animals
Procedure: (§1) Furthermore, the compound of formula I in which R^1 is fluorine and R^2 is hydrogen was investigated for its activity on galactosaemic rats (30% galactose diet). More particularly, the dulcitol concentration in the eye lens was determined after 5 applications of 5 and of 20 mg/kg body weight per os over 2 days. Similarly, 20 mg/kg were administered intraperitoneally in an additional experiment. […] The same compound was also administered to streptozotocin-treated, diabetic rats (3 times 20 mg/kg p.o., 4, 8 and 24 hours after streptozotocin administration). Three (3) hours after the administration of the last dosage, the sorbitol concentration was determined in the eye lens and in the sciatic nerve.

[2] = tested on: streptozotocin-treated, diabetic rats; assay: sorbitol concentration in eye lens and sciatic nerve of streptozotocin-treated, diabetic rats; assay type: in vivo; settings: 3 times 20 mg/kg p.o. (4, 8 and 24 hours after streptozotocin), 3 hours after last dosage
Procedure: as §1

IC50 [1] [nM] | SMILES | dulcitol concentration in the eye lens (galactosaemic rats; 20 mg/kg administered intraperitoneally) | dulcitol concentration in the eye lens (galactosaemic rats; 5 applications of 5 mg/kg body weight per os over 2 days) | dulcitol concentration in the eye lens (galactosaemic rats; 5 applications of 20 mg/kg body weight per os over 2 days) | sorbitol concentration in the eye lens [2] | sorbitol concentration in the sciatic nerve [2]
100 | O=C1NC(=O)C2(CCOc3ccc(F)cc32)S1 (racemic) [(±)-6-fluoro-2,3-dihydrospiro[4H-1-benzopyran-4,5'-thiazolidine]-2',4'-dione] | significant decrease | significant decrease | significant decrease | clear decrease | clear decrease
8 | CC(=O)Nc1cc(F)cc2c1OCCC21SC(=O)NC1=O (racemic) [(±)-6-fluoro-8-acetamido-2,3-dihydrospiro[4H-1-benzopyran-4,5'-thiazolidine]-2',4'-dione] | – | – | – | – | –
89 | O=C1NC(=O)C2(CCOc3c([N+](=O)[O-])cc(F)cc32)S1 (racemic) [(±)-6-fluoro-8-nitro-2,3-dihydrospiro[4H-1-benzopyran-4,5'-thiazolidine]-2',4'-dione] | – | – | – | – | –
